The text below walks through data of US20250213587A1, “ITK INHIBITORS FOR INCREASING TH1 CELL ACTIVITY” (Corvus Pharmaceuticals, Inc., priority 2022, published 2025).

Assay [1] has as its system NK cells with anti-CD20 bound Jeko target cells. Nature of the assay: NK-mediated ADCC. Format: cell-based, human. To be noted: 1 μM, 18 hours. The protocol:
FIGS. 9A-9B show selective Inhibition of ITK preserved NK-mediated ADCC. FIG. 9A: Lymphocyte subsets (5 donors/cell type) were purified from the peripheral blood of 22 healthy donors. The expression of ITK and RLK, relative to the house keeping gene IPO8, were determined by qPCR. FIG. 9B: Peripheral blood NK cells from 7 healthy donors were co-cultured at a 10:1 ratio with anti-CD20 bound target cells (B-cell lymphoma line Jeko) and with inhibitors for 18 hours. Cell lysis was detected by viability dye using flow cytometry. The % dead target cells in samples treated with DMSO were set as the maximum lysis (100%).
NK cells express both ITK and RLK (FIG. 9A). […] Peripheral blood NK cells from 7 healthy donors were co-cultured with an anti-CD20 bound target B-cell line at a ratio of 10:1 for 18 hours in the presence of the inhibitors over a range of concentrations up to 1 μM. Cell lysis was detected by flow cytometry using viability dye staining.

Assay [2] deals with T1, ITK (Mus musculus, UniProt Q03526).
T1 construct: from tissue; host or cells: splenocytes of dosed C57Bl/6 mice
T1 sequence (Q03526 1-625): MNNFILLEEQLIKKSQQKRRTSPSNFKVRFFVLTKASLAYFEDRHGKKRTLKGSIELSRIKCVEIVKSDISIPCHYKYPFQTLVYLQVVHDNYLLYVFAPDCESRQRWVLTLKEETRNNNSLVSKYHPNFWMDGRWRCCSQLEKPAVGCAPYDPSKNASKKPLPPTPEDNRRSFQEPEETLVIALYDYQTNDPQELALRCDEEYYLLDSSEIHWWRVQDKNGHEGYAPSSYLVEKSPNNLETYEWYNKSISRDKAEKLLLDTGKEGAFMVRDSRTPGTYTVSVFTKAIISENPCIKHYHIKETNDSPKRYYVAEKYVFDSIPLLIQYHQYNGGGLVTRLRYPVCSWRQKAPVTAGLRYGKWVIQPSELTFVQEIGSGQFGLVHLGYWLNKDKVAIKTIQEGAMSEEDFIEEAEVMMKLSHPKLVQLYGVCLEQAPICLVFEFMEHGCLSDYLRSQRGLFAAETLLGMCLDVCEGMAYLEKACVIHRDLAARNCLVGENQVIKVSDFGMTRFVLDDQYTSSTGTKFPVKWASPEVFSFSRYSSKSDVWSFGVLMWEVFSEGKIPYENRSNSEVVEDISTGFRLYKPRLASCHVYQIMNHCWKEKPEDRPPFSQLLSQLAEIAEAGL
Put plainly: ITK occupancy in mouse splenocytes. Format: in vivo. The following applies: for receptor occupancy at 50 mg/kg: po. The method, then:
The active site occupancy of ITK by a covalent inhibitor was measured using an irreversibly bound biotinylated probe in an immuno-electrochemiluminescence assay. The binding of an inhibitor and the probe to the ATP binding site is mutually exclusive. In lysates of immune cell lines or immune cells collected from treated animals, the biotinylated probe reacts with free (uninhibited) ITK and is subsequently captured on a streptavidin-coated surface and quantified. The free ITK in each sample is normalized by dividing it by either the lysate protein concentration (BCA protein assay, Pierce) or cell count of the sample. Normalized free ITK values are generated for samples collected prior to and after treatment from which occupancy was calculated using equation 7. Single cell suspensions of Jurkat cells, mouse splenocytes, dog PBMC or purified normal human T cells were prepared. Cell lysis was performed using a buffer containing CelLytic M (Sigma Aldrich) supplemented with protease and phosphatase inhibitors (Pierce). The cell pellet resuspended in lysis buffer was incubated at room temperature for 30 minutes when the lysate was clarified by centrifugation at 20,000×g for 5 minutes at 4° C. A solution of the biotinylated probe CP-613 (27.5 nM final, FIG. 14B) was added to the lysate and incubated with mixing for 60 minutes at room temperature. The lysate mixture (35 μL) was transferred in duplicate to separate wells of a blocked streptavidin-coated plate (Mesoscale Diagnostics) then incubated at room temperature with mixing for 60 minutes. The lysate mixture was removed from the plate and the wells were washed with three rounds of PBS/Tween 20 buffer (Thermo Scientific). Rabbit polyclonal anti-ITK antibody solution (Abcam) was dispensed into the wells of the plate and incubated at room temperature with mixing for 60 minutes. The antibody solution was removed from the wells and washed with three rounds of PBS/Tween 20 buffer. Anti-rabbit antibody (goat) sulfo-TAG (Mesoscale Diagnostics) was dispensed into the wells of the plate then incubated at room temperature with mixing for 60 minutes. The antibody solution was removed from the plate and the wells washed with three rounds of PBS/Tween 20 buffer. Read buffer (Mesoscale Diagnostics) diluted two-fold with water was dispensed into the wells of the plate which was read immediately using an MESO Quickplex SQ 120 instrument.
Male C57Bl/6 mice (6-8 weeks of age) were purchased from Charles River Laboratories. […] At scheduled time points mice were euthanized by asphyxiation by CO2 and their spleens were collected immediately and placed into ice cold PBS (N=4/timepoint). All animal procedures were conducted in accordance with a protocol approved by the IACUC committee at Corvus Pharmaceuticals.

Assay [3] relates to peripheral T cell lymphoma. Put plainly: Anti-tumor activity in human clinical trials (T cell lymphoma). It counts as in vivo. An excerpt: Each lane represents a patient with the length indicating time on treatment. A treatment cycle is 21 days and then the cycle is repeated until the patient experiences tumor progression or unacceptable toxicity.
Where [4] appears, read: PTCL-NOS patient, within 8-15 days.

`C=CC(=O)N1CCCN(C(=O)c2cc(Sc3cnc(NC(=O)C4CC4)s3)c(C)cc2OC)C[C@H]1C` [CPI-818]: the “decrease of ADCC” value in assay [1] is 20%. Besides, the receptor occupancy at 300 mg/kg/day in assay [2] (mouse, chow formulation, 300 mg/kg/day) was in the range of 86 to 95%. For the same compound, the receptor occupancy at 50 mg/kg is 95% in assay [2] (mouse, 50 mg/kg BID PO, 2 h after dosing); 36% in assay [2] (mouse, 50 mg/kg BID PO, 12 h, prior to second dose); 17% in assay [2] (mouse, single 50 mg/kg PO, 24 h); 87 to 98% in assay [2] (mouse, single 50 mg/kg PO, first 8 h). For the same compound, in assay [2] (single 50 mg/kg PO, first 8 h, 50 mg/kg), the “ITK occupancy in splenocytes” value is recorded as more than 87%. Also, the ITK occupancy entry in assay [2] (single dose, 30 to 120 min) is given as “essentially complete ITK occupancy”. In addition, the “dose with best anti-tumor response” value in assay [3] (100, 200, 400, 600 mg BID evaluated) was “best response occurred at the dose of 200 mg BID”. Besides, in assay [3] (Example 2, 200 mg BID), the “duration of complete remission” value is 25 months. Further, the “response of patient with peripheral T-cell lymphoma NOS” value in assay [3] (Example 2, 200 mg BID) is listed as “complete remission”. For the same compound, the “response of patient with PTCL-NOS” value in assay [3] (FIG. 23, cycle 17, after 1 year of treatment) is listed as “complete response”. In addition, the “duration of complete response” value in assay [3] (FIG. 23 patient) is recorded as 19 months. The “platelets (PLT) and lactate dehydrogenase (LDH)” value in assay [3] (setting [4]) is recorded as “improvement”. In assay [3] (setting [4]), the “subcutaneous (SQ) tumor” value was “dramatic reduction”.
